Source: patent publication US9187411B2, “Leukotriene B4 antagonist compound” (Eli Lilly and Company, priority 2012, dated 2015)

Target: T1, PPARδ (Homo sapiens, UniProt Q03181)
T1 construct: made in house; host or cells: Sf9 insect cells (baculovirus), crude cell lysate
T1 sequence (Q03181 1-441): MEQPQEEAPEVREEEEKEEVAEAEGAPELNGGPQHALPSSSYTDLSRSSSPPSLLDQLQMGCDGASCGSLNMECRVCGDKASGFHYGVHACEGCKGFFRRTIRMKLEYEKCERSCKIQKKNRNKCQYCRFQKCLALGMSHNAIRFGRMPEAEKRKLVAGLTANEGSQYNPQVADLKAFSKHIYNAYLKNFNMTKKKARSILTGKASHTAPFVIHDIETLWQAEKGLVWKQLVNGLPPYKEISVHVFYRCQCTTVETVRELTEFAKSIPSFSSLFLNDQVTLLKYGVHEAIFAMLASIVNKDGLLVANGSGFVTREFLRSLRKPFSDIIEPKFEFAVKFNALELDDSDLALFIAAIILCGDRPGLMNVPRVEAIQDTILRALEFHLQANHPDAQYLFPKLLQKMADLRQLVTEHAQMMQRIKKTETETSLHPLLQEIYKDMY
T1 sequence (P19793 1-462 partner): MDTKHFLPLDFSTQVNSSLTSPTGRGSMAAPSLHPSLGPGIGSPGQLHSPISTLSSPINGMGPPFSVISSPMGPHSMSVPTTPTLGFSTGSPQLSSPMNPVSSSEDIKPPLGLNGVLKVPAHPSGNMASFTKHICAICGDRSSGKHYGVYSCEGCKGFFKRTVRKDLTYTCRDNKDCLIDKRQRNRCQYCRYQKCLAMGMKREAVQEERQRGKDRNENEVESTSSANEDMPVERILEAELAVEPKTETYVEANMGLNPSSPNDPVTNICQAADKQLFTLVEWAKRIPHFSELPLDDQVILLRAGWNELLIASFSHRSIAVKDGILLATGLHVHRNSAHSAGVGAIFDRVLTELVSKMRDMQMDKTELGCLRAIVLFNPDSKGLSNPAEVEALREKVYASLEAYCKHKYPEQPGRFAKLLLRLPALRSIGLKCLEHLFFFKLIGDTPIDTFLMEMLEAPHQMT
Assay: PPAR delta binding assay (SPA)
Settings: tritiated GW2331, n=4, read-out: Ki PPAR δ binding
Description: The nucleotide sequences encoding full-length PPARα receptor DNA (National Center for Biotechnology Information (NCBI) Reference Sequence NM_005036.4), PPARδ receptor DNA (NCBI Reference Sequence NM_006238.4), PPARγ receptor DNA (NCBI Reference Sequence NM_015869.4) and Retinoid X Receptor (RXR) α DNA (NCBI Reference Sequence NM_002957.4) are synthesized and inserted into pFastBacHTb (Invitrogen) vector in-framed with the N-terminal HIS tag from the vector. […] The protein concentration is determined by Bradford assay using BSA as the standard.
Binding Affinities of Compounds for the PPAR α, δ, γ Receptors are Assessed Using Scintillation Proximity Assay (SPA) Technology.
Biotinylated oligonucleotide(DR2) ^5′[…]^3′ (SEQ ID NO: 1) is used for binding of receptors to Yttrium silicate streptavidin-coated SPA beads (Perkin Elmer). The PPAR α, δ, γ and Retinoid X Receptor (RXR) α receptors (endogenously expressed as heterodimers) are cell lysates from Baculovirus expression systems in Sf9 cells. […] Non-specific binding is determined in the presence of 10000 nM unlabeled GW2331 (Kliewer, S. A. et al Proc. Natl. Acad. Sci. USA (1997), 94: 4318-4323) for the alpha and delta receptors and 2-methyl-2-[4-[3-[propyl[(5-pyridin-2-ylthiophen-2-yl)sulfonyl]amino]-propyl]phenoxy]propanoic (WO 2004/073606) for the gamma receptor. […]

Compound: CCCc1c(NC(=O)CC(C)(C)C(=O)[O-])cccc1OCCCOc1cc(O)c(-c2ccc(F)cc2)cc1CC.[Na+] [Example 2, Sodium 4-[[3-[3-[2-ethyl-4-(4-fluorophenyl)-5-hydroxy-phenoxy]propoxy]-2-propyl-phenyl]amino]-2,2-dimethyl-4-oxo-butanoate]
- Ki: > 8.83 µM
